Consider 2 compounds from patent US10231954B2, “Neurodegenerative therapies” (LYTIX BIOPHARMA AS, priority 2014, dated 2019).

Common to all, as to type: biochemical
Holding throughout (conditions): 100 micromolar inhibitor concentration; 100 is no change

One test addresses ERK5 (Homo sapiens, UniProt Q13164). Kind of test: Kinase profiling ERK5. An excerpt:
(§1) Any value less that 25 is considered to be highly significant inhibition.

A further test concerns the target MEKK1 (Homo sapiens, UniProt Q13233). Kind of test: Kinase profiling MEKK1.
From the text: as §1

The target of another test is PDGFRA (Homo sapiens, UniProt P16234). Kind of test: Kinase profiling PDGFRA.
Chain of PDGFRA (P16234 24-1089, species assumed): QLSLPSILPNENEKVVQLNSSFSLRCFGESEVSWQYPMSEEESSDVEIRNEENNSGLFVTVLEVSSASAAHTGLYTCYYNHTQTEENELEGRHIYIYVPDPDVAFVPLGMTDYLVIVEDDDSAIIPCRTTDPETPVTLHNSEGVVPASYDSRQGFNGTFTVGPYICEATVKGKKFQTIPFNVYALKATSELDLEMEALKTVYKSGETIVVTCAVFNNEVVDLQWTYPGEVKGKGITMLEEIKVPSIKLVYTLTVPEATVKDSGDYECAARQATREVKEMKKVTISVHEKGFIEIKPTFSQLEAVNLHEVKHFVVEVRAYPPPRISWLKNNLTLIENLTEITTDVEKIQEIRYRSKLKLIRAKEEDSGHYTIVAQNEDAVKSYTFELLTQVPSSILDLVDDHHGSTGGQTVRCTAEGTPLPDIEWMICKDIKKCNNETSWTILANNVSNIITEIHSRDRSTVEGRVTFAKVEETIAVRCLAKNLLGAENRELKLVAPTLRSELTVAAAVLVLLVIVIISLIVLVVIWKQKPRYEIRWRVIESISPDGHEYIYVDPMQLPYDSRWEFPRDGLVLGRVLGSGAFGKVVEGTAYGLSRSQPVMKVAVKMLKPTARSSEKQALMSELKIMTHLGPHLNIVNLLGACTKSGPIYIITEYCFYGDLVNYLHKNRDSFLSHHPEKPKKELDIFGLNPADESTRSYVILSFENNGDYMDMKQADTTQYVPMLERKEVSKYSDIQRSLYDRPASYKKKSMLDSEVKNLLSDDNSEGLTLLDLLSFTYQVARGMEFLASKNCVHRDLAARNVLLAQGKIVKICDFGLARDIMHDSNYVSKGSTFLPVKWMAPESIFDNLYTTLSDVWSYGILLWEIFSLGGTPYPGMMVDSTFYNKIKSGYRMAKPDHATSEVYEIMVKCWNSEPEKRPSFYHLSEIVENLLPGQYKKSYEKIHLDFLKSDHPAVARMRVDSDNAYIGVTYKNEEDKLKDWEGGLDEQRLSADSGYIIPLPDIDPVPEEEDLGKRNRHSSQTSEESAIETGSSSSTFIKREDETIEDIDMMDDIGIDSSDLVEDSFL
From the text: as §1

The next test addresses IR (Homo sapiens, UniProt P06213). Kind of test: Kinase profiling IR.
From the text: as §1

The target of another test is SIK3 (Homo sapiens, UniProt Q9Y2K2). Kind of test: Kinase profiling SIK3.
Chain of SIK3 (Q9Y2K2 whole entry, species assumed): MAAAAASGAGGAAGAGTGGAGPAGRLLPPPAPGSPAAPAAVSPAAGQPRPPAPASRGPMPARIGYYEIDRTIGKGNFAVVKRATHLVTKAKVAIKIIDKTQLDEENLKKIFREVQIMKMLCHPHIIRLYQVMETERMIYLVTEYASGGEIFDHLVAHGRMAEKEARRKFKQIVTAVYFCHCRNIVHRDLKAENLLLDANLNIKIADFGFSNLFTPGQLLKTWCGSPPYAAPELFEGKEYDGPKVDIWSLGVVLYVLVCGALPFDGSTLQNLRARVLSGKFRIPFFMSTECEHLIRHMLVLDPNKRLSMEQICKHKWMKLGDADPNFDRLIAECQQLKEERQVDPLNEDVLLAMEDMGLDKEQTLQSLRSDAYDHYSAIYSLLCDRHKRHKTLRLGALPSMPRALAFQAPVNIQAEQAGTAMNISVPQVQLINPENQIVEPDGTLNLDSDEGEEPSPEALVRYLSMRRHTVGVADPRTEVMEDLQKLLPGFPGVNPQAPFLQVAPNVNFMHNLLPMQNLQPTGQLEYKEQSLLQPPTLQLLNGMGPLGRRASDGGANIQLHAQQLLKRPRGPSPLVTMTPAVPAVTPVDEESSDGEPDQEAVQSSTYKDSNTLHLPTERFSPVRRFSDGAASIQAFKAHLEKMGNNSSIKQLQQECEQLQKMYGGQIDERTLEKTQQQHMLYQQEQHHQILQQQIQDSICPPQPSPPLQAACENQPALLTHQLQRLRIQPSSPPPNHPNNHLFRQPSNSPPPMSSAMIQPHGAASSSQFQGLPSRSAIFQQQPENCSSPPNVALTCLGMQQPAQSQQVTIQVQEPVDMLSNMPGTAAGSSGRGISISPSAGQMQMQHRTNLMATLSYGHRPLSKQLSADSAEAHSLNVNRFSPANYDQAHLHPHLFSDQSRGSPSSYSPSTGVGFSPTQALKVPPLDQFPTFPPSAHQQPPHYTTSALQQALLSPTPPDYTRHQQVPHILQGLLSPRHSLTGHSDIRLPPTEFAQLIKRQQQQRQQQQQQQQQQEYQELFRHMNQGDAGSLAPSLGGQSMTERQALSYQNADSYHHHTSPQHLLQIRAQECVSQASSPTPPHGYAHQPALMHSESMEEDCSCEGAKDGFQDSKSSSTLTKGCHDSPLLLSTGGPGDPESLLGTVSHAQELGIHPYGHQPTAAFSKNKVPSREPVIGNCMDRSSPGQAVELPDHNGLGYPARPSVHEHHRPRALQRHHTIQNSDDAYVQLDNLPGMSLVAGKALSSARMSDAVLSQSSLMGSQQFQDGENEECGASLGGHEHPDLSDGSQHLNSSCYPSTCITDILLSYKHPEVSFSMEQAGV
From the text: as §1

Another test concerns the target WNK1 (Homo sapiens, UniProt Q9H4A3). Kind of test: Kinase profiling WNK1.
From the text: as §1

Another test addresses TESK1 (Homo sapiens, UniProt Q15569). Kind of test: Kinase profiling TESK1.
From the text: as §1

Another test concerns the target PIM2 (Homo sapiens, UniProt Q9P1W9). Kind of test: Kinase profiling PIM2.
From the text: as §1

Another test concerns the target T1, ZAP70 (Homo sapiens, UniProt P43403).
T1 sequence (P43403 1-619): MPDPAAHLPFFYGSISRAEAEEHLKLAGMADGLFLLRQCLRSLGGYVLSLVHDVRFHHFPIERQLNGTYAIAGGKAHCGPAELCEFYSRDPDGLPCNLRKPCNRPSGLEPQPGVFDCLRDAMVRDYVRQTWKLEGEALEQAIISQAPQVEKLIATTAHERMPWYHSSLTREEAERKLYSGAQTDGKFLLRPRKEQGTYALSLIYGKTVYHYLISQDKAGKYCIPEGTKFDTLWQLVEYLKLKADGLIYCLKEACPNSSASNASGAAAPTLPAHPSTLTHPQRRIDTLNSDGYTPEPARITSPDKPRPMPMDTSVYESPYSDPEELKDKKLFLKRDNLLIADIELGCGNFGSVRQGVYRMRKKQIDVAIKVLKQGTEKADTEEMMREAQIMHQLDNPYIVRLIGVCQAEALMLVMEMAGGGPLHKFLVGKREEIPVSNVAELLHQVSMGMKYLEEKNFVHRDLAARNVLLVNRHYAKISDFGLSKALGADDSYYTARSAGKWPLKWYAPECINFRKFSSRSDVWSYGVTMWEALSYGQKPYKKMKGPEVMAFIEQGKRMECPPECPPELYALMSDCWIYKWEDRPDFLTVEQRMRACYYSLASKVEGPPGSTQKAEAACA
Kind of test: Kinase profiling ZAP70.
From the text: as §1

For another test, the target named is T2, TSSK1 (Homo sapiens, UniProt Q9BXA7).
T2 sequence (Q9BXA7 1-367): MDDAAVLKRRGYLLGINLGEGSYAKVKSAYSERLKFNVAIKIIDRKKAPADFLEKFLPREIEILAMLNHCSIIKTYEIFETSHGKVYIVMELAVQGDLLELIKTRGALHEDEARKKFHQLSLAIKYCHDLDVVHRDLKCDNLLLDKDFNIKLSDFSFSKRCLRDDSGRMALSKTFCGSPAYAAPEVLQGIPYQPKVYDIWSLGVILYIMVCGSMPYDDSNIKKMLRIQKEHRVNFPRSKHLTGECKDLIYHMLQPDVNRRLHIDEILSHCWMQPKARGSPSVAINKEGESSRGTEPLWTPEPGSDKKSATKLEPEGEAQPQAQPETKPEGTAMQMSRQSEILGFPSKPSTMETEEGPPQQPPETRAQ
Kind of test: Kinase profiling TSSK1.
From the text: as §1

The next test has as its target MINK1 (Homo sapiens, UniProt Q8N4C8). Kind of test: Kinase profiling MINK1.
From the text: as §1

In the next test the target is MST3 (Homo sapiens, UniProt Q9Y6E0). Kind of test: Kinase profiling MST3.
From the text: as §1

Another test concerns the target MST4 (Homo sapiens, UniProt Q9P289). Kind of test: Kinase profiling MST4.
From the text: as §1

For a further test, the target named is CDK2-Cyclin A (Homo sapiens, UniProt P24941). Kind of test: Kinase profiling CDK2-Cyclin A.
From the text: as §1

The next test addresses TTBK1 (Homo sapiens, UniProt Q5TCY1). Kind of test: Kinase profiling TTBK1.
From the text: as §1

The next test addresses IRR (Homo sapiens, UniProt P14616). Kind of test: Kinase profiling IRR.
From the text: as §1

The target of the next test is TIE2 (Homo sapiens, UniProt Q02763). Kind of test: Kinase profiling TIE2.
From the text: as §1

Chain of ERK5 (Q13164 whole entry, species assumed): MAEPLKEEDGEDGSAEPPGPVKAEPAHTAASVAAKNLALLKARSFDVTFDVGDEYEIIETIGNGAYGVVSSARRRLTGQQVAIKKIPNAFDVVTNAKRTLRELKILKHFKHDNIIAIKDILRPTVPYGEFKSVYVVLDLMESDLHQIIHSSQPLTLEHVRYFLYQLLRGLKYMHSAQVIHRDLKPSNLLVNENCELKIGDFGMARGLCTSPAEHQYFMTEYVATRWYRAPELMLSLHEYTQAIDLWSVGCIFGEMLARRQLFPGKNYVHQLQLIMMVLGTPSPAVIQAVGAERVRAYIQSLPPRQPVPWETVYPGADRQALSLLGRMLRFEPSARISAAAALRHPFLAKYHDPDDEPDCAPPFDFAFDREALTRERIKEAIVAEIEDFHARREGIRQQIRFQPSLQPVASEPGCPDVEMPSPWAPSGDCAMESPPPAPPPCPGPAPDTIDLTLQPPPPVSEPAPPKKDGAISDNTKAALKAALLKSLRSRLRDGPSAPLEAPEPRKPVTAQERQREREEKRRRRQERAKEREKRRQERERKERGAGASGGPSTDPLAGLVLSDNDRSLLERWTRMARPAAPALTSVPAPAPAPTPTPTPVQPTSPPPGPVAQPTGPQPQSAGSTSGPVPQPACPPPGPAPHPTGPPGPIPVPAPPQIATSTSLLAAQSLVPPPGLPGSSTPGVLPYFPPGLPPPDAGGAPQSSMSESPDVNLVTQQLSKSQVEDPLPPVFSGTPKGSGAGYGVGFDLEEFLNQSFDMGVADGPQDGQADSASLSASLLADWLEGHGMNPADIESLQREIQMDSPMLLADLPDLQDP
Chain of IRR (P14616 27-1297, species assumed): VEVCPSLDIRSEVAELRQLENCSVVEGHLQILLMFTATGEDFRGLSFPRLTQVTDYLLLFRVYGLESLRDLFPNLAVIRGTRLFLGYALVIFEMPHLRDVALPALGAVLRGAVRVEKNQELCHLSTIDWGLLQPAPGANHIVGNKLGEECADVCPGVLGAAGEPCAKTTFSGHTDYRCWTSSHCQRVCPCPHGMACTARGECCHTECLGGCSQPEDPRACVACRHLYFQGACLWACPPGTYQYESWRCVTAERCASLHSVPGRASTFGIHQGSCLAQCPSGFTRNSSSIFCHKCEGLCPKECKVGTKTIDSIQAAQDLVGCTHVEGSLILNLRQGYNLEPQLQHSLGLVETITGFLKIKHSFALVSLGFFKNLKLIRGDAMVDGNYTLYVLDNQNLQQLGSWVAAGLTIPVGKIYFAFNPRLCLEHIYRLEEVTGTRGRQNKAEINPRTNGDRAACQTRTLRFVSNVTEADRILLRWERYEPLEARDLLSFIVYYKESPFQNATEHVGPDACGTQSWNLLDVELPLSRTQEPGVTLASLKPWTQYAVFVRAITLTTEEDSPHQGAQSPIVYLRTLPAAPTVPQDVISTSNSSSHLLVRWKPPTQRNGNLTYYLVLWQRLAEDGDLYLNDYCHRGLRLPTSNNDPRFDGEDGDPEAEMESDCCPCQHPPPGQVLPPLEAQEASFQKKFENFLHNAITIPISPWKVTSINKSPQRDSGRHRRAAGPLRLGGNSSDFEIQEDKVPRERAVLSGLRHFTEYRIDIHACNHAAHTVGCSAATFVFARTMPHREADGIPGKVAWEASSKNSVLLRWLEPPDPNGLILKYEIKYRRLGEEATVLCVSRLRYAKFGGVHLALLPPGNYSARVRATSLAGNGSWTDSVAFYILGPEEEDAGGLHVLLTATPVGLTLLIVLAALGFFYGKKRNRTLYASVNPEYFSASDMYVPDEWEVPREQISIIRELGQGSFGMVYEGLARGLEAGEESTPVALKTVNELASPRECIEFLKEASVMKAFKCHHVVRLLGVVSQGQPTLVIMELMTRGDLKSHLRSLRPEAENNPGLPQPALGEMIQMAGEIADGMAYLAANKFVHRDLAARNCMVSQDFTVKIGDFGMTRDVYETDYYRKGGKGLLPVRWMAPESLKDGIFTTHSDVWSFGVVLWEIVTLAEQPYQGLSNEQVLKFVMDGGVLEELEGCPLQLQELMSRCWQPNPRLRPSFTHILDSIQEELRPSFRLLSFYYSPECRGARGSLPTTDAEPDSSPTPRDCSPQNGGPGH
Chain of PIM2 (Q9P1W9 whole entry, species assumed): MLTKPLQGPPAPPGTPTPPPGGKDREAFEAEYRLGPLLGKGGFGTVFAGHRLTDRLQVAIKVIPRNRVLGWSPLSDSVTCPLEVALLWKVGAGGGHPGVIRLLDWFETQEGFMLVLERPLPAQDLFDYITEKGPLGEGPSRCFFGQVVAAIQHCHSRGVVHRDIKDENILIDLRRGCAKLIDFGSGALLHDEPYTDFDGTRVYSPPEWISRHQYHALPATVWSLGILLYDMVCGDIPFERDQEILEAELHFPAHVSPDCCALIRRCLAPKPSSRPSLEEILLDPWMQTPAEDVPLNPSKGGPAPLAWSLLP

In the case of `O=C(Nc1nc2ccc(O)cc2s1)c1ccncc1` [Compound 08-42], on ERK5, the “residual kinase activity, ERK5” value is recorded as 41. For the same compound, on MEKK1, the “residual kinase activity, MEKK1” value is 76. Moreover, at PDGFRA, the “residual kinase activity, PDGFRA” value turned out to be 40. Moreover, the “residual kinase activity, IR” value at IR stood at 51. Besides, on SIK3, the “residual kinase activity, SIK3” value was determined as 67. Also, at WNK1, the “residual kinase activity, WNK1” value turned out to be 89. The “residual kinase activity, TESK1” value at TESK1 is recorded as 73. For the same compound, the “residual kinase activity, PIM2” value at PIM2 was 90. In addition, the “residual kinase activity, ZAP70” value at ZAP70 is reported as 92. For the same compound, the “residual kinase activity, TSSK1” value at TSSK1 came out at 85. The “residual kinase activity, MINK1” value at MINK1 stood at 37. The “residual kinase activity, MST3” value at MST3 is listed as 77. Further, the “residual kinase activity, MST4” value at MST4 came to 79. For the same compound, the “residual kinase activity, CDK2-Cyclin A” value on CDK2-Cyclin A turned out to be 72. Also, the “residual kinase activity, TTBK1” value on TTBK1 worked out at 70. The “residual kinase activity, IRR” value on IRR was 71. On TIE2, the “residual kinase activity, TIE2” value came out at 80.

For `O=C(Nc1nc2ccc(O)cc2s1)c1cccnc1` [Compound 08-44], the “residual kinase activity, ERK5” value on ERK5 came to 43. Besides, on MEKK1, the “residual kinase activity, MEKK1” value is 107. For the same compound, at PDGFRA, the “residual kinase activity, PDGFRA” value turned out to be 44. For the same compound, the “residual kinase activity, IR” value at IR is recorded as 35. For the same compound, the “residual kinase activity, SIK3” value at SIK3 is on record as 80. Also, the “residual kinase activity, WNK1” value at WNK1 came to 99. Besides, the “residual kinase activity, TESK1” value on TESK1 came out at 70. Also, at PIM2, the “residual kinase activity, PIM2” value is given as 76. For the same compound, the “residual kinase activity, ZAP70” value on ZAP70 was found to be 79. On TSSK1, the “residual kinase activity, TSSK1” value is recorded as 109. Moreover, the “residual kinase activity, MINK1” value on MINK1 is 19. Besides, on MST3, the “residual kinase activity, MST3” value stood at 76. Moreover, the “residual kinase activity, MST4” value on MST4 stood at 80. In addition, on CDK2-Cyclin A, the “residual kinase activity, CDK2-Cyclin A” value worked out at 72. Moreover, at TTBK1, the “residual kinase activity, TTBK1” value is reported as 47. The “residual kinase activity, IRR” value at IRR was found to be 45. Moreover, at TIE2, the “residual kinase activity, TIE2” value came out at 81.
